One test relates to XBP1. The experiment in a line: Cellular XBP1 splicing assay (NanoLuc luciferase reporter). The class given is cell-based. Particulars: Homo sapiens; ARPE-19 cells stably expressing XBP1-nano-luciferase; thapsigargin 150 nM, 4 hour incubation. How it is done: ARPE-19 cells stably expressing XBP1 (a.a. 1-376) with nano-luciferase gene sequence linked so it is in frame when XBP1 is spliced, were cultured in F12 media, 10 % FBS, 0.044% sodium bicarbonate, 150 µg/ml hygromycin B and seeded for assays at 5,000 cells in 384 well plates in culture media without hygromycin B and incubated at 37° C./5% CO2. After overnight incubation test compounds were added to the cell plate in a 10-point ½ log dilution series in duplicate (final DMSO concentration 0.117 %). After further incubation of 30 minutes thapsigargin was added (final concentration 150 nM) and then another 4 hour incubation. A NanoLuc luciferase assay (Promega) was used according to the manufacturer’s instructions to detect the luciferase and luminescence measured on a luminometer (EnVision, PerkinElmer). IC50 values calculated by fitting a sigmoidal curve to percent inhibition of control of compound concentration.
(In a reporter assay the amount or activity of a reporter protein is the signal.)

The target of another test is IRE1α RNase (Homo sapiens (Human), UniProt O75460). The experiment in a line: Inhibition of RNase activity of IRE1α. The class given is biochemical. The following applies: 0.325 nM enzyme, 100 nM substrate, 20 minutes at room temperature. Here is the method: The RNase reactions were performed in 384 well black ProxiPlate-384 Plus plates (PERKIN Elmer) using 50 mM Tris assay buffer with 0.5 mM MgCl2, 10 mM KCl, 0.03 % Tween, 2 mM DTT and 1% DMSO. Test compounds were prepared on the day of assay and dispensed using D300 digital dispenser as a 10-point ½ log dilution series in duplicate, normalized to a final DMSO concentration of […]. Test compounds were pre-incubated for 30 min at room temperature with IRE1α kinase (E31-11G from Signal Chem) in 2.5 µL of assay buffer. Then 2.5 µl of assay buffer containing substrate (5′ Alexa Fluor 647 - rCrArUrGrUrC rCrGrCrArGrCrGrCrArUrG - Iowa Black RQ quencher 3′) (SEQ ID NO:1) added, giving a final concentration of enzyme of 0.325 nM and of substrate of 100 nM. After 20 minutes incubation at room temperature the reactions were stopped by added 5 µL of 5 M urea, incubated at room temperature for 10 minutes and fluorescence measured on a plate reader (EnVision, PerkinElmer). IC50 values calculated by fitting a sigmoidal curve to percent inhibition of control versus compound concentration.
Chain of IRE1α RNase (O75460 468-977): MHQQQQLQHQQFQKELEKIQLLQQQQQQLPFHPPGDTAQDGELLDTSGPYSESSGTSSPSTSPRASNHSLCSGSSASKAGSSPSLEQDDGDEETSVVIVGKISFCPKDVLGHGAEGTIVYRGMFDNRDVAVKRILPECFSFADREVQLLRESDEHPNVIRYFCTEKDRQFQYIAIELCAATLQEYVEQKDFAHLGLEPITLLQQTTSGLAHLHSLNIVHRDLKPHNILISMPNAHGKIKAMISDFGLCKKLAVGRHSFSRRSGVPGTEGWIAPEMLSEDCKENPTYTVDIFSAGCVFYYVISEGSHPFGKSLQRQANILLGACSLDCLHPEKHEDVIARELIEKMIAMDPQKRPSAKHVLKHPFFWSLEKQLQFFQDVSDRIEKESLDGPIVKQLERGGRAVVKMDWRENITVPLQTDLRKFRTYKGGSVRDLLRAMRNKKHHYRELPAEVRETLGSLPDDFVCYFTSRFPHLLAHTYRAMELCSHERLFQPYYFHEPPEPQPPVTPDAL

For orientation: IC50 means the midpoint of a concentration-inhibition curve. Higher therefore signals weaker potency.

`CCOc1ccc(F)c(S(=O)(=O)Nc2cc(F)c(-c3nn(C(C)C)c4c3c(N)ncc4[C@H]3CC[C@H](NCC(C)F)CC3)cc2F)c1` (stereo partly drawn) [Compound A9, N-(4-(4-amino-7-((1r,4r)-4-((2-fluoropropyl)amino)cyclohexyl)-1-isopropyl-1H-pyrazolo[4,3-c]pyridin-3-yl)-2,5-difluorophenyl)-5-ethoxy-2-fluorobenzenesulfonamide] came in with an IC50 in the test with XBP1 of 7.5 nM. In the case of `COCCN[C@H]1CC[C@H](c2cnc(N)c3c(-c4cc(F)c(NS(=O)(=O)c5cc(C)ccc5Cl)cc4F)nn(C(C)C)c32)CC1` [Compound A4, N-(4-(4-amino-1-isopropyl-7-((1r,4r)-4-((2-methoxyethyl)amino)cyclohexyl)-1H-pyrazolo[4,3-c]pyridin-3-yl)-2,5-difluorophenyl)-2-chloro-5-methylbenzenesulfonamide], the IC50 in the test with XBP1 stood at 3.3 nM; on IRE1α RNase, 2.8 nM.

In turn, `CCOc1ccc(F)c(S(=O)(=O)Nc2cc(F)c(-c3nn(C(C)C)c4c3c(N)ncc4[C@H]3CC[C@H](NC4CC(F)(F)C4)CC3)cc2F)c1` [Compound A7, N-(4-(4-amino-7-((1r,4r)-4-((3,3-difluorocyclobutyl)amino)cyclohexyl)-1-isopropyl-1H-pyrazolo[4,3-c]pyridin-3-yl)-2,5-difluorophenyl)-5-ethoxy-2-fluorobenzenesulfonamide] yielded an IC50 in the test with XBP1 of 6.1 nM. `CCOc1ccc(F)c(S(=O)(=O)Nc2cc(F)c(-c3nn(C(C)C)c4c3c(N)ncc4[C@H]3CC[C@H](N4CCOCC4)CC3)cc2F)c1` [Compound A15, N-(4-(4-amino-1-isopropyl-7-((1r,4r)-4-morpholinocyclohexyl)-1H-pyrazolo[4,3-c]pyridin-3-yl)-2,5-difluorophenyl)-5-ethoxy-2-fluorobenzenesulfonamide] yielded an IC50 with XBP1 of 7.2 nM. Turning to `CC(C)n1nc(-c2cc(F)c(NS(=O)(=O)c3ccccc3F)cc2F)c2c(N)ncc([C@H]3CC[C@H](NCCOC(F)(F)F)CC3)c21` [Compound A8, N-(4-(4-amino-1-isopropyl-7-((1r,4r)-4-((2-(trifluoromethoxy)ethyl)amino)cyclohexyl)-1H-pyrazolo[4,3-c]pyridin-3-yl)-2,5-difluorophenyl)-2-fluorobenzenesulfonamide], the figures for the IC50 with XBP1 and against IRE1α RNase were 39.3 nM and 17.9 nM, respectively. `CC(C)n1nc(-c2cc(F)c(NS(=O)(=O)c3cc(F)ccc3F)cc2F)c2c(N)ncc([C@H]3CC[C@H](N4CCOCC4)CC3)c21` [Compound A16, N-(4-(4-amino-1-isopropyl-7-((1r,4r)-4-morpholinocyclohexyl)-1H-pyrazolo[4,3-c]pyridin-3-yl)-2,5-difluorophenyl)-2,5-difluorobenzenesulfonamide] had an IC50 in the test on XBP1 of 26.9 nM. Still for that read-out and setting: under `CC(C)n1nc(-c2cc(F)c(NS(=O)(=O)Cc3ccccc3Cl)cc2F)c2c(N)ncc([C@H]3CC[C@H](N4CCOCC4)CC3)c21` [Compound A19, N-(4-(4-amino-1-isopropyl-7-((1r,4r)-4-morpholinocyclohexyl)-1H-pyrazolo[4,3-c]pyridin-3-yl)-2,5-difluorophenyl)-1-(2-chlorophenyl)methanesulfonamide] stands 11.1 nM.

For the compound `COCCN[C@H]1CC[C@H](c2cnc(N)c3c(-c4cc(F)c(NS(=O)(=O)c5cc(OC(F)F)ccc5Cl)cc4F)nn(C(C)C)c32)CC1` [Compound A1, N-(4-(4-amino-1-isopropyl-7-((1r,4r)-4-((2-methoxyethyl)amino)cyclohexyl)-1H-pyrazolo[4,3-c]pyridin-3-yl)-2,5-difluorophenyl)-2-chloro-5-(difluoromethoxy)benzenesulfonamide], the IC50 came to 14.5 nM with XBP1 and 2.7 nM at IRE1α RNase.

Take `CCOc1ccc(F)c(S(=O)(=O)Nc2cc(F)c(-c3nn(C(C)C)c4c3c(N)ncc4[C@H]3CC[C@H](NCC(C)(C)OC)CC3)cc2F)c1` [Compound A6, N-(4-(4-amino-1-isopropyl-7-((1r,4r)-4-((2-methoxy-2-methylpropyl)amino)cyclohexyl)-1H-pyrazolo[4,3-c]pyridin-3-yl)-2,5-difluorophenyl)-5-ethoxy-2-fluorobenzenesulfonamide]: the IC50 in the test on XBP1 amounted to 6.7 nM.

Source of the values: patent US20230331719A1, “Pyrazolopyridine Compounds and Methods of Inhibiting IRE1 Using Same” (OPTIKIRA, LLC, priority 2020, published 2023).
